From the Deep4Chem optical property database
Values belong to the compound of their own block, whether it stands above or below them.

Experiment: solvent given as SMILES

absorption maximum (in ClC(Cl)Cl): 611 nm
Compound: CCCCCCc1cc(-c2ccc3c(c2)C2CCCC2N3c2ccc3c(c2)C(C)(C)c2ccccc2-3)sc1/C=C1\C(=O)c2ccc(C(=O)O)cc2C1=O (configuration not stated)

Compound: COc1ccc(-c2cc(-c3ccc(OC)cc3)c3c(N)nc(N4CCCC4)c(C#N)c3n2)cc1
absorption maximum (in CC#N): 416 nm | absorption maximum (in CC(C)=O): 416 nm | absorption maximum (in CC(C)O): 412 nm | absorption maximum (in CO): 412 nm | absorption maximum (in ClC(Cl)Cl): 420 nm | absorption maximum (in ClCCl): 418 nm | absorption maximum (in c1ccccc1): 420 nm

Compound: O=C1O[B-]2(OC1=O)OC(c1ccc3ccccc3c1)=CC(c1ccc3ccccc3c1)=[O+]2
absorption maximum (in CC#N): 435 nm | absorption maximum (in ClC(Cl)(Cl)Cl): 438 nm

absorption maximum (in ClC(Cl)Cl): 425 nm | absorption maximum (in O): 421 nm
Compound: C/C=C/C=C/C1=NC(=C\c2ccc(O)cc2)/C(=O)N1C

absorption maximum (in CO): 278 nm
Compound: Cc1ccc2nnn(-c3c(C#N)c4c(N)ncnc4n3[C@H]3C[C@H](O)[C@@H](CO)O3)c2c1

absorption maximum (in ClCCl): 428 nm
Compound: CCN(CC)c1ccc2cc(C#N)c(=N)oc2c1

absorption maximum (in CC#N): 396 nm | absorption maximum (in ClCCl): 396 nm
Compound: COC(=O)c1cc(=O)n(C)c2cc(-c3cccc(N(C)C)c3)sc12

Compound: COc1ccc(-c2cc(C)nc(-c3ccc(-n4c5ccccc5c5ccccc54)cc3)n2)cc1
absorption maximum (in C1CCOC1): 339 nm | absorption maximum (in CN(C)C=O): 340 nm | absorption maximum (in Cc1ccccc1): 341 nm | absorption maximum (in ClC(Cl)Cl): 342 nm

absorption maximum (in CCO): 376 nm
Compound: Cc1ccc(C(=O)OCc2c(C)c(=O)n3c(=O)c(C)c(C)n23)cc1

absorption maximum (in ClCCl): 454 nm
Compound: c1ccc(-c2cc3c(-c4ccccc4)c4cccc5c(-c6ccccc6)cc6c(-c7ccccc7)c7cccc2c7c3c6c54)cc1

Compound: CC1(C)c2ccccc2N(c2ccccc2)c2ccc(-c3ccc(C(=O)c4ccc(-c5ccc6c(c5)C(C)(C)c5ccccc5N6c5ccccc5)cc4)cc3)cc21
absorption maximum (in Cc1ccccc1): 377.59 nm

absorption maximum (in C1CCOC1): 348 nm
Compound: CCCCn1c2ccc(C#Cc3cccs3)cc2c2c1c1c3ccc(C#Cc4cccs4)cc3n(CCCC)c1c1c3ccc(C#Cc4cccs4)cc3n(CCCC)c21

absorption maximum (in CN(C)C=O): 334 nm
Compound: O=c1[nH]nc(-c2ccc(/C=C/c3ccc(-c4n[nH]c(=O)o4)cc3)cc2)o1

absorption maximum (in ClCCl): 477 nm
Compound: CCCCCCCCCCCCN1C(=O)c2c(c3ccc4cc(-c5ccc(N(C)C)cc5)c(OC)cc4c3c3c2ccc2cc(-c4ccc(N(C)C)cc4)c(OC)cc23)C1=O

absorption maximum (in ClCCl): 743 nm
Compound: Cc1ccc([N+]2=c3c4n(c5ccccc35)[B-](F)(F)[N+](c3ccc(C)cc3)=c3c=4n(c4ccccc34)[B-]2(F)F)cc1

Compound: Oc1cccc(/N=C/c2ccccc2Oc2ccccc2)c1
absorption maximum (in C1CCCCC1): 322 nm | absorption maximum (in C1CCOC1): 327 nm | absorption maximum (in C1COCCO1): 325 nm | absorption maximum (in CC#N): 328 nm | absorption maximum (in CC(C)CO): 323 nm | absorption maximum (in CC(C)O): 324 nm | absorption maximum (in CCCCC): 318 nm | absorption maximum (in CCCCCC): 320 nm | absorption maximum (in CCCCCCCCO): 329 nm | absorption maximum (in CCCCCCCO): 325 nm | absorption maximum (in CCCCCCO): 321 nm | absorption maximum (in CCCCO): 331 nm | absorption maximum (in CCCCOC(C)=O): 326 nm | absorption maximum (in CCCO): 328 nm | absorption maximum (in CCO): 327 nm | absorption maximum (in CCOC(C)=O): 321 nm | absorption maximum (in CCOCC): 327 nm | absorption maximum (in CN(C)C=O): 329 nm | absorption maximum (in CO): 328 nm | absorption maximum (in CS(C)=O): 329 nm | absorption maximum (in Cc1ccccc1): 324 nm | absorption maximum (in Cc1ccccc1C): 327 nm | absorption maximum (in ClC(Cl)Cl): 328 nm | absorption maximum (in ClCCl): 325 nm | absorption maximum (in N#Cc1ccccc1): 344 nm | absorption maximum (in OCCO): 328 nm | absorption maximum (in c1ccccc1): 328 nm

absorption maximum (in O): 295 nm
Compound: COc1cc(/C=C/CO)ccc1O

Compound: O=Cc1cc(O)c(C=O)cc1O
absorption maximum (in C1CCOC1): 414 nm | absorption maximum (in C1COCCO1): 414 nm | absorption maximum (in CC#N): 413 nm | absorption maximum (in CC(C)=O): 413 nm | absorption maximum (in CCCO): 415 nm | absorption maximum (in CCO): 413 nm | absorption maximum (in CN(C)C=O): 414 nm | absorption maximum (in CN(C)P(=O)(N(C)C)N(C)C): 427 nm | absorption maximum (in CNC=O): 377 nm | absorption maximum (in CO): 384 nm | absorption maximum (in CS(C)=O): 417 nm | absorption maximum (in NC=O): 356 nm
